The values below come from patent US20240287079A1, “6-AMINOPYRAZOLOPYRIMIDINE COMPOUND AND PHARMACEUTICAL USE THEREOF” (Japan Tobacco Inc., priority 2021, published 2024).

NLRP3 inflammasome, sequence (Q96P20 whole entry): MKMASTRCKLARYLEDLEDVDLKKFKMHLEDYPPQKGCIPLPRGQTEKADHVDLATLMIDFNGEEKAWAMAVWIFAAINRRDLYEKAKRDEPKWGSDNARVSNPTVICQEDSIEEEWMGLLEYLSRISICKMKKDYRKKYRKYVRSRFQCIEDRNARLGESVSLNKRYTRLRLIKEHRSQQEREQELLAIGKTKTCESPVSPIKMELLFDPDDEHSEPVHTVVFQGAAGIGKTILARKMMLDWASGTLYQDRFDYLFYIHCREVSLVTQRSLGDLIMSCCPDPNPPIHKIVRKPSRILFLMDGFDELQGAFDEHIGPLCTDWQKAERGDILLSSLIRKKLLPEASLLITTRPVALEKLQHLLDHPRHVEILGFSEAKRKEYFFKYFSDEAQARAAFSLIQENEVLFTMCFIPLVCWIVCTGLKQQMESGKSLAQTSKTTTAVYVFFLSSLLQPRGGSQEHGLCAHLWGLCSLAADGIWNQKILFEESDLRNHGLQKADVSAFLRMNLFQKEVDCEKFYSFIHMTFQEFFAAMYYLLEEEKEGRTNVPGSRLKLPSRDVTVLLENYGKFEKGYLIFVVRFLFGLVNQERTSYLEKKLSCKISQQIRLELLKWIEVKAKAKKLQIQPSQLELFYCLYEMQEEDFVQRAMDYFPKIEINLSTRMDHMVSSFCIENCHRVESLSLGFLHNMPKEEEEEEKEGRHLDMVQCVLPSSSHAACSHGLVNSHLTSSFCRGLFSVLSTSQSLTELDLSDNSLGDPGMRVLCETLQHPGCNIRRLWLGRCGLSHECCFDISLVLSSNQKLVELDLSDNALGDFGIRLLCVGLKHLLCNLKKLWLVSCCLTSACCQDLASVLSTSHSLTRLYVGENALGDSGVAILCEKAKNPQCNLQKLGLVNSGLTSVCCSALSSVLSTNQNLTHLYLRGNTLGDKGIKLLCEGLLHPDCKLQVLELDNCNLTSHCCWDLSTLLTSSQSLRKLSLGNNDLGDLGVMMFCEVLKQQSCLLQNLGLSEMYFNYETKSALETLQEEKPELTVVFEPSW

One experiment addresses NLRP3 inflammasome (Homo sapiens (Human), UniProt Q96P20). Put plainly: Evaluation of NLRP3 inflammasome inhibitory activity (inhibition of IL-1β production in LPS/Nigericin-stimulated THP1-Null cells). The format is cell-based. To be noted: IL-1β production in THP1-Null cells, PMA, LPS 1 μg/mL, Nigericin 7.5 μmol/L, AlphaLISA. In short, it runs like this:
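THP1-Null cells primed with 1 μg/mL LPS, then treated with test compound; supernatant IL-1β quantified by AlphaLISA. Inhibition calculated with blank wells as 100% and control wells as 0%.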
In general terms: Alpha assays give light when donor and acceptor beads are brought close together.
The IC50 is the concentration at which inhibition is half-maximal. The low end stands for greater potency in that assay, the high end for weaker potency in that assay. In the case of `Cc1nn(C2CCC2)c(C)c1-n1cc2c(=O)[nH]c(N3CCCC3)nc2n1` [Example 344], the IC50 was found to be 650 nM.

The compound `COc1cc(C)c(-n2cc3c(=O)[nH]c(N4CCCC4)nc3n2)c(C)c1` [Example 345] gave a half-inhibitory concentration (IC50) of 16 nM.

`Cc1c(-n2cc3c(=O)[nH]c(N4CCCC4)nc3n2)c(C(F)(F)F)nn1C(C)C` [Example 346] displayed an IC50 of 81 nM.

In turn, `CONc1nc2nn(-c3c(C)cc(C4CC4)cc3C)cc2c(=O)[nH]1` [Example 348] had an IC50 of 33 nM.

`Cc1cc(C2CC2)cc(C)c1-n1cc2c(=O)[nH]c(N3CCOCCO3)nc2n1` [Example 349, 2-(4-cyclopropyl-2,6-dimethylphenyl)-6-(1,5,2-dioxazepan-2-yl)-2,5-dihydro-4H-pyrazolo[3,4-d]pyrimidin-4-one] yielded an IC50 of 19 nM.

Take `Cc1nn(C2CCCC2)c(C)c1-n1cc2c(=O)[nH]c(N3CCCC3)nc2n1` [Example 350]: the IC50 was found to be 1200 nM.

Take `Cc1cc(C(C)(F)F)cc(C)c1-n1cc2c(=O)[nH]c(N3CCOCCO3)nc2n1` [Example 351]: it took 74 nM to reach half-maximal inhibition (IC50).

With `Cc1cc(OC(F)F)cc(C)c1-n1cc2c(=O)[nH]c(N3CCOCCO3)nc2n1` [Example 352], half-maximal inhibition (IC50) was put at 68 nM.

In the case of `Cc1cc(Br)cc(C)c1-n1cc2c(=O)[nH]c(N3CCOCC3=O)nc2n1` [Example 353], the half-maximal inhibitory concentration (IC50) was 76 nM.

The compound `Cc1cc(OC(F)F)cc(C)c1-n1cc2c(=O)[nH]c(N3CCOCC3=O)nc2n1` [Example 354] displayed an IC50 of 220 nM.

Compound `O=c1[nH]c(N2CCOCCO2)nc2nn(-c3ccc(Br)cc3C(F)(F)F)cc12` [Example 355] had a half-maximal inhibitory concentration (IC50) of 43 nM.

Compound `O=c1[nH]c(N2CCOCCO2)nc2nn(-c3ccc(C4CC4)cc3C(F)(F)F)cc12` [Example 356] returned a half-maximal inhibitory concentration (IC50) of 23 nM.

Turning to `Cc1cc(C(F)(F)F)cc(C)c1-n1cc2c(=O)[nH]c(N3CCOCCO3)nc2n1` [Example 357], the midpoint of inhibition, the IC50, lay at 28 nM.

`Cc1cc(CC(F)F)cc(C)c1-n1cc2c(=O)[nH]c(N3CCOCCO3)nc2n1` [Example 358]: the IC50 stood at 800 nM.

In the case of `Cc1cc(Br)cc(C)c1-n1cc2c(=O)[nH]c(NCCOCCO)nc2n1` [Example 360], 6.1 nM corresponded to half-maximal inhibition (IC50).

As for `Cc1cc(Br)cc(C)c1-n1cc2c(=O)[nH]c(N(CCO)CCO)nc2n1` [Example 361], the IC50 came to 13 nM.

In the case of `Cc1cc(Br)cc(C)c1-n1cc2c(=O)[nH]c(N3C=COCC3)nc2n1` [Example 362], the IC50 is 2.6 nM.

The experiment is the same for the next values; noted with them: IL-1β production in THP1-Null cells; test compound 0.0024 μM.
As a reminder, the inhibition is the percentage by which the read-out fell short of the control. Higher therefore signals a strong effect. `Cc1cc(Br)cc(C)c1-n1cc2c(=O)[nH]c(NCCO)nc2n1` [Example 359]: 0.0024 µM produced 69% inhibition.
